What was measured:
giant foxtail = test: Test B pre-/postemergence herbicide test; type: in vivo, Setaria faberi
How it was run: (§1)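 Test chemicals in a non-phytotoxic solvent mixture with surfactant were applied preemergence to seeded species and postemergence to plants 2-18 cm tall (1- to 4-leaf stage); rice and barnyardgrass were also tested in a flooded paddy at the 2-leaf stage. Visual rating versus controls after 13-15 days in greenhouse, scale 0 (no effect) to 100 (complete control).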

blackgrass [1] = test: Test B postemergence herbicide test; type: in vivo, Alopecurus myosuroides
How it was run: (§2)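 Greenhouse test; postemergence application to plants at 1–4 leaves (2–18 cm); paddy species at 2 leaves; evaluated visually vs controls at 13–15 days; scale 0–100 (100 = complete control).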

windgrass = test: Test C postemergence herbicide test; type: in vivo, Apera spica-venti
Description: (§3) At the same time, plants selected from these crop and weed species and also winter barley (Hordeum vulgare L.), blackgrass (Alopecurus myosuroides Huds.), canarygrass (Phalaris minor Retz.), chickweed (Stellaria media (L.) Vill.), downy bromegrass (Bromus tectorum L.), green foxtail (Setaria viridis (L.) Beauv.), Italian ryegrass (Lolium multiflorum Lam.), wheat (Triticum aestivum L.), wild oat (Avenafatua L.) and windgrass (Apera spica-venti (L.) Beauv.) were treated with postemergence applications of some of the test chemicals formulated in the same manner. Plants ranged in height from 2 to 18 cm (1- to 4-leaf stage) for postemergence treatments. Plant species in the flooded paddy test consisted of rice (Oryza sativa), smallflower umbrella sedge (Cyperus difformis L.), ducksalad (Heteranthera limosa (Sw.) Willd.) and barnyardgrass (Echinochloa crus-galli (L.) Beauv.) grown to the 2-leaf stage for testing. Treated plants and controls were maintained in a greenhouse for 12 to 14 days, after which time all species were compared to controls and visually evaluated. Plant response ratings, summarized in Table C, are based on a scale of 0 to 100 where 0 is no effect and 100 is complete control. A dash (-) response means no test result.

wild oat [2] = test: Test B postemergence herbicide test; type: in vivo, Avena fatua
How it was run: (§4)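 Read-out: visual comparison with controls, scored 0 to 100, where 100 means complete control and 0 no effect. Formulated chemicals were applied postemergence to plants 2–18 cm tall (1- to 4-leaf), or to flooded-paddy plants at the 2-leaf stage, then held 13 to 15 days under glass.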

Surinam grass = test: Test B pre-/postemergence herbicide test; type: in vivo, Urochloa decumbens
How it was run: as §1

blackgrass [3] = test: Test C postemergence herbicide test; type: in vivo, Alopecurus myosuroides
Description: as §3

cocklebur = test: Test B pre-/postemergence herbicide test; type: in vivo, Xanthium strumarium
How it was run: (§5)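 Greenhouse pot assay with simultaneous preemergence (treated seed) and postemergence (2–18 cm seedlings) applications of surfactant-containing, non-phytotoxic solvent formulations. Response scored visually 13–15 days later on a 0–100 scale, 100 meaning complete control.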

ducksalad = test: Test B flooded paddy test; type: in vivo, Heteranthera limosa; details: 1000 g ai/ha, scale 0 to 100 (0 no effect, 100 complete control)
How it was run: as §2

wheat [4] = test: Test C postemergence herbicide test; type: in vivo, Triticum aestivum
Description: as §3

barnyardgrass [5] = test: Test B flooded paddy test; type: in vivo, Echinochloa crus-galli; details: 1000 g ai/ha, scale 0 to 100 (0 no effect, 100 complete control)
How it was run: as §2

corn = test: Test B pre-/postemergence herbicide test; type: in vivo, Zea mays
How it was run: as §1

rice = test: Test B flooded paddy test; type: in vivo, Oryza sativa; details: 1000 g ai/ha, scale 0 to 100 (0 no effect, 100 complete control)
How it was run: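 Paddy species grown to the 2-leaf stage under flooding; blackgrass sprayed postemergence at 2–18 cm (1- to 4-leaf stage). Plants kept in a greenhouse for 13 to 15 days, then visually rated against controls on 0 (no effect) to 100 (complete control).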

Italian ryegrass = test: Test C postemergence herbicide test; type: in vivo, Lolium multiflorum
Description: as §3

morningglory = test: Test B pre-/postemergence herbicide test; type: in vivo, Ipomoea coccinea
How it was run: as §5

velvetleaf = test: Test B pre-/postemergence herbicide test; type: in vivo, Abutilon theophrasti
How it was run: as §1

lambsquarters = test: Test B pre-/postemergence herbicide test; type: in vivo, Chenopodium album
How it was run: as §1

green foxtail = test: Test C postemergence herbicide test; type: in vivo, Setaria viridis
Description: as §3

canarygrass = test: Test C postemergence herbicide test; type: in vivo, Phalaris minor
Description: as §3

[6] = tested on: small flower umbrella sedge; test: Test B flooded paddy test; type: in vivo, Cyperus difformis; details: 1000 g ai/ha, scale 0 to 100 (0 no effect, 100 complete control)
How it was run: as §2

pigweed = test: Test B pre-/postemergence herbicide test; type: in vivo, Amaranthus retroflexus
How it was run: as §1

large crabgrass = test: Test B pre-/postemergence herbicide test; type: in vivo, Digitaria sanguinalis
How it was run: as §1

winter barley = test: Test C postemergence herbicide test; type: in vivo, Hordeum vulgare
Description: as §3

wild oat [7] = test: Test C postemergence herbicide test; type: in vivo, Avenafatua
Description: as §3

barnyardgrass [8] = test: Test B pre-/postemergence herbicide test; type: in vivo, Echinochloa crus-galli; details: for Barnyardgrass plant response rating: Postemergence, scale 0 (no effect) to 100 (complete control)
How it was run: as §5

wheat [9] = test: Test B postemergence herbicide test; type: in vivo, Triticum aestivum; set-up: key to Wheat plant response rating: 0 = no effect, 100 = complete control
How it was run: as §4

downy bromegrass = test: Test C postemergence herbicide test; type: in vivo, Bromus tectorum
Description: as §3

[10] = 125 g ai/ha, 0 is no effect, 100 is complete control, preemergence
[11] = Postemergence, 500 g ai/ha, scale 0 (no effect) to 100 (complete control)
[12] = postemergence, 125 g ai/ha, scale 0 to 100
[13] = Postemergence, 500 g ai/ha, scale 0 to 100, 0 no effect, 100 complete control
[14] = postemergence, 62 g ai/ha, scale 0 to 100
[15] = Postemergence, 500 g ai/ha, scale 0 to 100
[16] = Postemergence, 250 g ai/ha, scale 0 to 100, 0 no effect, 100 complete control

C=CCN(CC=C)C(=O)c1ccc(F)c(NC(=O)c2cc(C(C)(C)C)nn2CC)c1 [Compound 431]
10: Plant response rating (0 to 100 scale), Surinam Grass (Surinam grass; [10]) | Plant response rating (0 to 100 scale), Barnyardgrass (barnyardgrass [8]; [10]) | Barnyardgrass plant response rating (barnyardgrass [8]; 125 g ai/ha) | Wheat plant response rating (wheat [9]; 500 g ai/ha, scale 0 to 100, 0 no effect, 100 complete control, preemergence)
70: Morningglory plant response rating (morningglory; [11]) | Pigweed plant response rating (pigweed; [11])
50: Plant response rating (0 to 100 scale), Foxtail, Giant (giant foxtail; [10]) | Blackgrass plant response rating (blackgrass [1]; [11]) | Oat, Wild plant response rating (wild oat [2]; [11]) | Pigweed plant response rating (pigweed; [12])
30: Foxtail, Giant plant response rating (giant foxtail; [11]) | Blackgrass plant response rating (blackgrass [1]; [12]) | Oat, Wild plant response rating (wild oat [2]; [12]) | Surinam Grass plant response rating (Surinam grass; [11]) | Cocklebur plant response rating (cocklebur; [12]) | Rice plant response rating (rice) | Crabgrass, Large plant response rating (large crabgrass; [11]) | Wheat plant response rating (wheat [9]; [11]) | Wheat plant response rating (wheat [9]; [12])
45: Plant response rating, Blackgrass (blackgrass [3]; [14]) | Plant response rating, Wheat (wheat [4]; [13]) | Plant response rating, Ryegrass, Italian (Italian ryegrass; [12]) | Plant response rating, Foxtail, Green (green foxtail; [14]) | Plant response rating, Canarygrass (canarygrass; [12]) | Plant response rating, Barley, Winter (winter barley; [16]) | Plant response rating, Oat, Wild (wild oat [7]; [14]) | Plant response rating, Bromegrass, Downy (downy bromegrass; [12])
60: Plant response rating, Windgrass (windgrass; [13]) | Blackgrass plant response rating (blackgrass [3]; [15]) | Plant response rating, Blackgrass (blackgrass [3]; [16]) | Cocklebur plant response rating (cocklebur; [11]) | Barnyardgrass plant response rating (barnyardgrass [5]) | Plant response rating (0 to 100 scale), Lambsquarters (lambsquarters; [10]) | Lambsquarters plant response rating (lambsquarters; [11]) | Plant response rating, Foxtail, Green (green foxtail; [16]) | Plant response rating, Foxtail, Green (green foxtail; [12]) | Plant response rating, Canarygrass (canarygrass; [16]) | Plant response rating, Canarygrass (canarygrass; [13]) | Plant response rating (0 to 100 scale), Crabgrass, Large (large crabgrass; [10]) | Barley, Winter plant response rating (winter barley; [15]) | Plant response rating, Bromegrass, Downy (downy bromegrass; [13])
55: Plant response rating, Blackgrass (blackgrass [3]; [12]) | Plant response rating, Ryegrass, Italian (Italian ryegrass; [13]) | Plant response rating, Oat, Wild (wild oat [7]; [12]) | Plant response rating, Bromegrass, Downy (downy bromegrass; [16])
20: Foxtail, Giant plant response rating (giant foxtail; [12]) | Surinam Grass plant response rating (Surinam grass; [12]) | Corn plant response rating (corn; [11]) | Corn plant response rating (corn; [12]) | Plant response rating (0 to 100 scale), Velvetleaf (velvetleaf; [10]) | Velvetleaf plant response rating (velvetleaf; [12]) | Crabgrass, Large plant response rating (large crabgrass; [12]) | Barnyardgrass plant response rating (barnyardgrass [8]; 500 g ai/ha)
0: Plant response rating (0 to 100 scale), Cocklebur (cocklebur; [10]) | Plant response rating (0 to 100 scale), Corn (corn; [10]) | Plant response rating (0 to 100 scale), Morningglory (morningglory; [10])
65: Plant response rating, Foxtail, Green (green foxtail; [13]) | Plant response rating, Oat, Wild (wild oat [7]; [13])
40: Plant response rating, Windgrass (windgrass; [12]) | Plant response rating, Windgrass (windgrass; [14]) | Plant response rating, Wheat (wheat [4]; [12]) | Plant response rating, Wheat (wheat [4]; [14]) | Plant response rating, Ryegrass, Italian (Italian ryegrass; [14]) | Morningglory plant response rating (morningglory; [12]) | Velvetleaf plant response rating (velvetleaf; [11]) | Lambsquarters plant response rating (lambsquarters; [12]) | Plant response rating, Canarygrass (canarygrass; [14]) | Plant response rating (0 to 100 scale), Pigweed (pigweed; [10]) | Plant response rating, Barley, Winter (winter barley; postemergence, 125 g ai/ha, scale 0 to 100 (0 no effect, 100 complete control)) | Plant response rating, Barley, Winter (winter barley; postemergence, 62 g ai/ha, scale 0 to 100 (0 no effect, 100 complete control)) | Plant response rating, Bromegrass, Downy (downy bromegrass; [14])
80: Ducksalad plant response rating (ducksalad) | Sedge, Umbrella plant response rating [6]

— patent publication US20060069132A1, “Azolecarboxamide herbicides” (priority 2004, published 2006)
